Measurements taken from PubChem BioAssay AID1645865 (Buhrlage Lab, Dana-Farber Cancer Institute and Novartis …, 2021).
Active and inactive are the calls of the source.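 Rule for the calls: active = maximal inhibition of the USP30 enzyme reaching 30% or more across the dose series; inactive = the rest.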

What follows are molecules tested against Ubiquitin carboxyl-terminal hydrolase 30 (Homo sapiens) (UniProt Q70CQ3) (assay: ubiquitin-specific protease 30 DUB inhibitors, concentration-effect, biochemical, validation of primary actives (AID 1645865)). Details: purified USP30, Ub-rhodamine cleavage, fluorescence, 2 h.
Sequence of Ubiquitin carboxyl-terminal hydrolase 30 (Homo sapiens) (Q70CQ3 whole entry, looked up): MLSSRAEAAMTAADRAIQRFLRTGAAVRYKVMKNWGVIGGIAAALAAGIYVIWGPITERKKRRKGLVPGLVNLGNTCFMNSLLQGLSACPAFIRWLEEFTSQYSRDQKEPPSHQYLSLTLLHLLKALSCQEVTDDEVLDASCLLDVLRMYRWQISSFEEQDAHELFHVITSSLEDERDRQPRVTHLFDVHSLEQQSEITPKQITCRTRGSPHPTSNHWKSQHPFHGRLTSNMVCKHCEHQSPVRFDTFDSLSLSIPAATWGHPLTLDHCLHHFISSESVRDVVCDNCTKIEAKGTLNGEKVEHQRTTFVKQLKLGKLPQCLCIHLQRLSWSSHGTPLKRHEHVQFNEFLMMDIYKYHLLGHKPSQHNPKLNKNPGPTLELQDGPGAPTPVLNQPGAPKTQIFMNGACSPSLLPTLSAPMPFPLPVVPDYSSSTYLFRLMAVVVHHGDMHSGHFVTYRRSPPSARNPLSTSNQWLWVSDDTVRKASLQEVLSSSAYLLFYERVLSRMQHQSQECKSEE

IC50	Compound
< 0.05 µM	Cc1ccc2c(C)nc(Nc3ncc4c(n3)CC(c3ccco3)CC4=O)nc2c1 (stereo unspecified)
> 50 µM (inactive)	COc1ccc(NC(=O)c2nnn(-c3ccccc3C)c2C)cc1OC
2.83 µM	COc1ccc(N(CC(=O)NC2CCCCC2)C(=O)c2ccc(-c3ccccc3)[nH]2)cc1OC
1.35 µM	Cc1ccc(-c2nc(NC(=O)COc3ccc(Cl)cc3)no2)cc1
> 50 µM (inactive)	COc1cc(OC)cc(C(=O)Nc2cnc(-c3ccccc3)nc2)c1
2.42 µM	O=C(Cn1c(=O)n(CC(=O)NC2CCCC2)c(=O)c2ccccc21)Nc1cc(Cl)ccc1Cl
> 50 µM (inactive)	CCn1c(Cn2cccn2)nc2cc(NC(=O)c3ccc(F)cc3)ccc21
> 50 µM (inactive)	Cc1ccc(N=Cc2sc(O)c3ccccc23)c(C)c1
> 50 µM (inactive)	O=C(NCc1ccc(CN2CCCC2)cc1)c1cc2ccccc2[nH]c1=O
> 50 µM (inactive)	CC(C)(C)C(=O)NC(c1ccccc1)c1nnc(N2CCOCC2)o1 (stereo unspecified)
3.22 µM	Cc1nn(-c2cccc(F)c2)c2c1c(C)c(CCC(=O)NCc1ccccn1)c(=O)n2C
21.9 µM	CCNc1oc(-c2ccc(S(=O)(=O)N3CCCCC3)cc2)nc1C#N
29.5 µM	Cc1cnnn1-c1ccc(C(=O)Nc2ccc(Cl)cc2)cc1
> 50 µM (inactive)	Cc1ccc(Cc2nc(-c3ccc(=O)[nH]c3)no2)cc1
> 50 µM (inactive)	CS(=O)(=O)NC1CCCN(C(=O)Nc2cccc3ccccc23)C1 (stereo unspecified)
2.33 µM	O=C(Cn1cnc2c(cnn2-c2ccc(Cl)cc2)c1=O)NCc1ccccc1Cl
> 50 µM (inactive)	CCC1OC(O)(C(C)C(O)C(C)C2OC(=O)/C(C)=C/C(C)=CC(C)C(O)C(C)C/C(C)=C/C=C/C2OC)CC(OC(=O)/C=C/C(=O)NC2=C(O)CCC2=O)C1C (stereo unspecified)
> 50 µM (inactive)	CC(=O)c1cccc(NC(=O)c2ccc(-c3csc(C)n3)cc2)c1
26.4 µM	Fc1cccc(Cn2cc(-c3noc(-c4cccnc4)n3)nn2)c1
25.6 µM	Cc1cccc(NC(=O)CSc2nnc(-c3n[nH]c4c3CCC4)n2N)c1
43.1 µM	O=C(OC1CSc2nc3ccccc3n2C1)c1ccc([N+](=O)[O-])o1 (stereo unspecified)
> 50 µM (inactive)	Cc1ccccc1C(=O)OCCN1C(=O)c2cccc3c(N4CCCCC4)ccc(c23)C1=O
> 50 µM (inactive)	COc1ccc(-c2cc3nc(C)cc(Nc4ccc(F)cc4)n3n2)cc1OC
> 50 µM (inactive)	Fc1ccccc1N1CCN(c2ncc3c(n2)CCN(Cc2ccccn2)C3)CC1

IC50	Compound
27.2 µM	Cc1ccc(S(=O)(=O)N2CCC3(CC2)NC(=O)c2ccccc2N3)cc1C
> 50 µM (inactive)	COc1cccc(CNC(=O)c2ccc3c(c2)NC(=O)C2CCCN32)c1OC (stereo unspecified)
> 50 µM (inactive)	COc1ccc(OC)c(-c2cc(C(=O)Nc3c(C)nn(Cc4ccccc4)c3C)no2)c1
> 50 µM (inactive)	CS(=O)(=O)N1CCCc2cc(C(=O)Nc3ccc(Oc4ccccc4)cc3)ccc21
2.36 µM	COc1ccc(S(=O)(=O)N2CCc3ccccc32)cc1C(=O)Nc1ccc2[nH]c(=O)[nH]c2c1
> 50 µM (inactive)	COc1cccc(CCNC(=O)CCn2c(=O)c(C)nc3cc(C)c(C)cc32)c1
0.182 µM	CC1(O)CC(=O)c2c(cc3cc(O)cc(O)c3c2O)C1 (stereo unspecified)
23.2 µM	Cc1cc(C)c2cc3c(nc2c1)OC(=O)N(Cc1ccco1)C3
12.3 µM	Cc1cc(C)cc(N(CCC(=O)Nc2ccc(N3CCOCC3)cc2)S(=O)(=O)c2ccc(Cl)cc2)c1
0.161 µM	COc1cccc2cc(C(=O)Nc3nc(-c4ccncc4)cs3)oc12
0.38 µM	CN(Cc1ccccc1)S(=O)(=O)c1ccc2[nH]cc(C(=O)NCc3cccs3)c(=O)c2c1
> 50 µM (inactive)	CC(=O)Nc1cccc(NC(=O)COc2cccc3ccc(N4CCCC4)nc23)c1
> 50 µM (inactive)	Cn1c(=O)c2c(ncn2CC(=O)NC2CCCc3ccccc32)n(C)c1=O (stereo unspecified)
49.2 µM	CCn1cc(-c2cc(C(=O)Nc3cnn(Cc4cccc(F)c4)c3)c3ccccc3n2)cn1
36.1 µM	CC1=C(C)C(N(c2ccccc2)c2ccccc2)N(CCC(C)C)C1=O (stereo unspecified)
37.6 µM	CC(C)C(=O)Nc1ccc(N2CCN(Cc3ccc(F)cc3)C2=O)nc1
> 50 µM (inactive)	COc1ccc(CCNc2c(-c3ccccc3O)nc3cnccn23)cc1OC
40.1 µM	O=C(/C=C/c1ccco1)c1cccc([N+](=O)[O-])c1
40.3 µM	CCc1cc2c(=O)[nH]c(Cc3ccc(OC)cc3)nc2s1
> 50 µM (inactive)	Cc1nn(-c2ccccc2)c(C)c1C(=O)OCC(=O)Nc1cccc(C#N)c1
> 50 µM (inactive)	O=C(Nc1ccc2c(c1)OCCO2)c1cc(CN2CCCC2)on1
1.68 µM	COc1ccc(C(=O)Nc2nc(-c3ccc4c(c3)NC(=O)CO4)c(C)s2)cc1OC
> 50 µM (inactive)	CCc1ccc(OCc2nnc(SCC(=O)Nc3ccccc3OC)n2Cc2ccccc2)cc1
39.2 µM	COc1cccc(N2CCN(c3ccc4nnc(CCC(=O)N5CCc6ccccc6C5)n4n3)CC2)c1

IC50	Compound
> 50 µM (inactive)	CCn1cnc2c1c(=O)n(CC(=O)NCc1ccccc1Cl)c(=O)n2Cc1ccccc1
4.75 µM	CSc1nc2ncn(CC(=O)Nc3cccc(Cl)c3)c(=O)c2s1
2.31 µM	COc1ccc(C(=O)Nc2n[nH]c(C)c2-c2cccc(C)c2)c(OC)c1
2.09 µM	Clc1cncc(Oc2nc(-c3cccnc3)nc3ccccc23)c1
> 50 µM (inactive)	C/C1=C\CCC(C)C(O)CC(O)C(C)C(O)CCC(C)C(O)CC2(O)OC(CC(OC(=O)CC(=O)O)CC(O)CC(O)CC(O)C(C)C(O)/C=C/C(C)C(C(C)CCCCCCCCN=C(N)N)OC1=O)CC(O)C2O (stereo unspecified)
> 50 µM (inactive)	O=C(Nc1cc(F)c2nc(N3CCOCC3)ccc2c1)C1CC1
3.95 µM	CNC(=O)c1c2n(c3ncccc13)CCN(S(=O)(=O)c1ccc(-c3ccccc3)cc1)C2
> 50 µM (inactive)	O=C1Cc2ccccc2C(=O)N1c1ccc2c(c1)OCO2
43.1 µM	COc1ccc(C2/C(=C(\O)c3ccccc3)C(=O)C(=O)N2c2nc3ccc(F)cc3s2)cc1 (stereo unspecified)
> 50 µM (inactive)	Cc1ccc(-n2nc(C)c3c2NC(=O)CC3C(=O)c2cc3ccccc3o2)cc1C (stereo unspecified)
44.8 µM	Cc1ccc2nc(CCc3ccc(NS(=O)(=O)c4cccc(Cl)c4C)cc3)[nH]c2c1
1.44 µM	CCOc1ccc(NC(=O)Cn2c(=O)n(CCCCCC(=O)NCc3ccc(F)cc3)c(=O)c3sccc32)cc1
4.74 µM	COC1=CC(=O)c2c(O)c3c(c(C)c2C1=O)C[C@@]1(O)[C@H](O[C@H]2CC[C@H](O[C@H]4C[C@@](C)(O)[C@H](OC(=O)c5c(C)ccc(C)c5O)[C@H](C)O4)[C@@H](C)O2)C(=O)C(C(C)=O)=C(O)[C@@]1(O)C3=O
> 50 µM (inactive)	CSc1nc2ncc3c(=O)n(CCc4ccccc4)ccc3n2n1
20.2 µM	CSc1ccc(CNC(=O)CC2CCN(S(=O)(=O)c3ccc(C)cc3)CC2)cc1
1.26 µM	Cc1cc(NC(=O)c2cc(-c3cccnc3)n[nH]2)ccc1Br
> 50 µM (inactive)	Cn1c(CN2CCCCCC2)nc2cc(NC(=O)c3ccccc3)ccc21
8.96 µM	Cc1ccc2[nH]c(=O)c(CN(CC3COCCO3)S(=O)(=O)c3ccc(F)cc3)cc2c1 (stereo unspecified)
> 50 µM (inactive)	CC(Sc1n[nH]c2nc3ccccc3n12)C(=O)Nc1ccc2c(c1)OCCO2 (stereo unspecified)
> 50 µM (inactive)	Cc1ccccc1Cn1ccc2ccn(Cc3cccnc3)c2c1=O
41.9 µM	O=C(/C=C/c1ccc(F)cc1)N1CCC(Cc2ccccc2)CC1
> 50 µM (inactive)	O=C(/C=C/c1ccc(F)cc1)Nc1ccc2c(c1)OCCO2
> 50 µM (inactive)	CN1CC2CN(C(=O)Nc3cccnc3)CCN2Cc2ccccc21 (stereo unspecified)
> 50 µM (inactive)	COc1ccc(C(=O)CSc2nnc(-c3cccnc3)n2-c2ccccc2)cc1

IC50	Compound
2.82 µM	O=C(NCc1ccc2c(c1)OCO2)c1cc(-c2cc(Cl)ccc2O)n[nH]1
> 50 µM (inactive)	Fc1cnc(N2CC[C@H]3CO[C@H](CNc4ncccn4)[C@H]3C2)nc1
17.9 µM	Cc1ccccc1NC(=O)Cn1c(N2CCOCC2)nc2cc(C)n(C)c2c1=O
13.2 µM	COc1ccc(Cl)c(NC(=O)C2CC(=O)Nc3cc(-c4ccccc4)nn32)c1 (stereo unspecified)
> 50 µM (inactive)	Cc1csc2ncc(C(=O)N3CCN(c4ccccc4F)CC3)c(=O)n12
40.3 µM	CCCCCCCc1cc(O)cc(OC(=O)c2c(CCCCCCC)cc(O)cc2O[C@H]2O[C@H](C(O)CO)[C@@H](O)[C@@H]2O)c1 (stereo partly specified)
3.88 µM	Cc1cc(C)c(NC(=O)CSc2nc3nccnc3c(=O)n2Cc2ccccc2Cl)c(C)c1
4.47 µM	Cc1cc(NC(=O)c2[nH]nc3c2CCc2ccccc2-3)no1
> 50 µM (inactive)	CC(C)(C)n1ncc2c(=O)n(Cc3cccc([N+](=O)[O-])c3)cnc21
< 0.05 µM	COc1cc(Cl)ccc1Nc1ncc(C(=O)Nc2cc(OC)c(OC)c(OC)c2)c2ccccc12
> 50 µM (inactive)	Cc1ccc(OC(=O)c2cn(-c3ccccc3)nc2-c2cccnc2)cc1
18.8 µM	COc1ccc(C2CC(=O)Nc3n[nH]c(-c4ccccc4)c32)cc1OC (stereo unspecified)
3.6 µM	CC(C)NC(=O)Cn1ccn2nc(-c3ccc(Cl)cc3)cc2c1=O
> 50 µM (inactive)	Fc1cccc(-n2cc(-c3noc(-c4ccc[nH]4)n3)nn2)c1
32.1 µM	O=C(NC1(O)C(=O)c2ccccc2C1=O)c1ccc(-c2csnn2)cc1
29.2 µM	Cc1ccc(Nc2nc(NCCc3ccccc3)nc3c2cnn3C)cc1
> 50 µM (inactive)	Cc1cc(C(F)(F)F)n2nc(C3CCN(C(=O)c4cnn(C)c4C)C3)cc2n1 (stereo unspecified)
> 50 µM (inactive)	O=C(COC(=O)Cn1cnc2ccccc21)Nc1ccc2c(c1)OCCO2
> 50 µM (inactive)	COc1c2c(cc3cc(O)c4c(=O)cc(C)oc4c13)CCC2=O
4.68 µM	CC(=O)C1=C(O)[C@]2(O)C(=O)c3c(c(C)c4ccc(C)c(O)c4c3O)C[C@H]2[C@@H](N)C1=O
24.5 µM	NS(=O)(=O)c1ccc(CNS(=O)(=O)c2ccc(-c3ccccn3)s2)cc1
> 50 µM (inactive)	Cc1cccc(C(=O)Nc2ccc3c(c2)nc(CSc2nccc(C)n2)n3C)c1

Compound	IC50
COc1cc(C2SCC(=O)Nc3c2c(-c2ccccc2)nn3-c2ccccc2)cc(OC)c1OC (stereo unspecified)	> 50 µM (inactive)
Cc1cccc(COc2ccc(C3SCC(=O)Nc4n[nH]c(C)c43)cc2)c1 (stereo unspecified)	8.16 µM
